From PubChem BioAssay (NCI)
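All cell lines were grown in 96-well plates and treated with compound for 48 hours. The concentration for full growth arrest is given as TGI.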

Tested on: MOLT-4 leukemia
Experiment: DTP human tumour cell line panel, 48 h

SMILES	TGI
COc1ccc(CNc2nc3cc(C(F)(F)F)ccc3nc2C)cc1OC	45.7 µM
COc1cccc(/C=C2\C(=O)N(C(=O)c3ccc(NC(C)=O)cc3)N=C2C)c1	> 100 µM
COC(C(O)c1ccc2c(c1)OCO2)P(=O)(c1ccccc1)c1ccccc1 (configuration not stated)	> 100 µM
N#C/C(=C\c1cc2ccccc2c2ccccc12)c1ccccc1	28 µM
CCOc1ccc2c(c1)[n+]([O-])c(-c1nc3ccccc3s1)c(N)[n+]2[O-]	> 100 µM
CS(=O)(=O)c1cc(=O)c2ccccc2s1	3.92 µM
Cc1ccc2c(c1)CN(C(=O)CCC(=O)OCc1ccccc1)c1ccc(C)cc1CN2C(=O)CCC(=O)OCc1ccccc1	> 100 µM
CC(=O)N1C/C(=C\c2ccc(N(C)C)cc2)C(=O)/C(=C/c2ccc(N(C)C)cc2)C1	> 100 µM
Cc1[nH]c2ccccc2c1C1Cc2ccccc2N1C(=O)/C(Cl)=C/c1ccccc1 (configuration not stated)	> 100 µM

Tested on: DMS 273 small cell lung
Experiment: DTP human tumour cell line panel, 48 h

SMILES	TGI
Cc1ccc(-c2cc(=O)c3cc(C)c(C)c(C(=O)O)c3o2)cc1C	> 100 µM
O=C(/C=C/c1c(O)ccc2ccccc12)c1ccccc1	> 100 µM
Cc1nc2ccccc2c(=O)n1-c1ccccc1F	> 100 µM
CC(C)N1CN(C(C(=O)N[C@@H]2C(=O)N3C2SC(C)(C)C3C(=O)O)c2ccccc2)CSC1=S (some centres not stated)	> 100 µM
CC(C)c1cc2c(O)c(c1)Cc1cc(C(C)C)cc(c1O)Cc1cc(C(C)C)cc(c1O)Cc1cc(C(C)C)cc(c1O)C2	> 100 µM
COc1ccc(/C=C\c2cc(OC)c(OC)c(OC)c2)cc1OC(=O)NCCN(C)C	0.000109 µM
COc1ccc(CNc2nc3cc(C(F)(F)F)ccc3nc2C)cc1OC	48.9 µM
COc1cccc(/C=C2\C(=O)N(C(=O)c3ccc(NC(C)=O)cc3)N=C2C)c1	> 100 µM
COC(C(O)c1ccc2c(c1)OCO2)P(=O)(c1ccccc1)c1ccccc1 (configuration not stated)	> 100 µM
N#C/C(=C\c1cc2ccccc2c2ccccc12)c1ccccc1	8.73 µM
CCOc1ccc2c(c1)[n+]([O-])c(-c1nc3ccccc3s1)c(N)[n+]2[O-]	> 100 µM
CS(=O)(=O)c1cc(=O)c2ccccc2s1	20.7 µM
Cc1ccc2c(c1)CN(C(=O)CCC(=O)OCc1ccccc1)c1ccc(C)cc1CN2C(=O)CCC(=O)OCc1ccccc1	> 100 µM
CC(=O)N1C/C(=C\c2ccc(N(C)C)cc2)C(=O)/C(=C/c2ccc(N(C)C)cc2)C1	> 100 µM
Cc1[nH]c2ccccc2c1C1Cc2ccccc2N1C(=O)/C(Cl)=C/c1ccccc1 (configuration not stated)	> 100 µM

Tested on: UO-31 renal
Experiment: DTP human tumour cell line panel, 48 h

SMILES	TGI
Cc1ccc(-c2cc(=O)c3cc(C)c(C)c(C(=O)O)c3o2)cc1C	> 100 µM
O=C(/C=C/c1c(O)ccc2ccccc12)c1ccccc1	> 100 µM
Cc1nc2ccccc2c(=O)n1-c1ccccc1F	> 100 µM
CC(C)N1CN(C(C(=O)N[C@@H]2C(=O)N3C2SC(C)(C)C3C(=O)O)c2ccccc2)CSC1=S (some centres not stated)	> 100 µM
CC(C)c1cc2c(O)c(c1)Cc1cc(C(C)C)cc(c1O)Cc1cc(C(C)C)cc(c1O)Cc1cc(C(C)C)cc(c1O)C2	> 100 µM
COc1ccc(/C=C\c2cc(OC)c(OC)c(OC)c2)cc1OC(=O)NCCN(C)C	> 63.2 µM
COc1ccc(CNc2nc3cc(C(F)(F)F)ccc3nc2C)cc1OC	65.1 µM
COc1cccc(/C=C2\C(=O)N(C(=O)c3ccc(NC(C)=O)cc3)N=C2C)c1	> 100 µM
COC(C(O)c1ccc2c(c1)OCO2)P(=O)(c1ccccc1)c1ccccc1 (configuration not stated)	> 100 µM
N#C/C(=C\c1cc2ccccc2c2ccccc12)c1ccccc1	57.7 µM
CCOc1ccc2c(c1)[n+]([O-])c(-c1nc3ccccc3s1)c(N)[n+]2[O-]	96.3 µM
CS(=O)(=O)c1cc(=O)c2ccccc2s1	29.4 µM
CC(=O)N1C/C(=C\c2ccc(N(C)C)cc2)C(=O)/C(=C/c2ccc(N(C)C)cc2)C1	> 100 µM
Cc1[nH]c2ccccc2c1C1Cc2ccccc2N1C(=O)/C(Cl)=C/c1ccccc1 (configuration not stated)	> 100 µM

Tested on: NCI-H23 lung
Experiment: DTP human tumour cell line panel, 48 h

SMILES	TGI
Cc1ccc(-c2cc(=O)c3cc(C)c(C)c(C(=O)O)c3o2)cc1C	> 100 µM
O=C(/C=C/c1c(O)ccc2ccccc12)c1ccccc1	> 100 µM
Cc1nc2ccccc2c(=O)n1-c1ccccc1F	> 100 µM
CC(C)N1CN(C(C(=O)N[C@@H]2C(=O)N3C2SC(C)(C)C3C(=O)O)c2ccccc2)CSC1=S (some centres not stated)	> 100 µM
CC(C)c1cc2c(O)c(c1)Cc1cc(C(C)C)cc(c1O)Cc1cc(C(C)C)cc(c1O)Cc1cc(C(C)C)cc(c1O)C2	> 100 µM
COc1ccc(/C=C\c2cc(OC)c(OC)c(OC)c2)cc1OC(=O)NCCN(C)C	0.00431 µM
COc1ccc(CNc2nc3cc(C(F)(F)F)ccc3nc2C)cc1OC	> 100 µM
COc1cccc(/C=C2\C(=O)N(C(=O)c3ccc(NC(C)=O)cc3)N=C2C)c1	> 100 µM
COC(C(O)c1ccc2c(c1)OCO2)P(=O)(c1ccccc1)c1ccccc1 (configuration not stated)	> 100 µM
N#C/C(=C\c1cc2ccccc2c2ccccc12)c1ccccc1	> 95 µM
CCOc1ccc2c(c1)[n+]([O-])c(-c1nc3ccccc3s1)c(N)[n+]2[O-]	> 100 µM
CS(=O)(=O)c1cc(=O)c2ccccc2s1	24.7 µM
Cc1ccc2c(c1)CN(C(=O)CCC(=O)OCc1ccccc1)c1ccc(C)cc1CN2C(=O)CCC(=O)OCc1ccccc1	> 100 µM
CC(=O)N1C/C(=C\c2ccc(N(C)C)cc2)C(=O)/C(=C/c2ccc(N(C)C)cc2)C1	> 100 µM
Cc1[nH]c2ccccc2c1C1Cc2ccccc2N1C(=O)/C(Cl)=C/c1ccccc1 (configuration not stated)	> 100 µM

Tested on: UACC-257 melanoma
Experiment: DTP human tumour cell line panel, 48 h

SMILES	TGI
Cc1ccc(-c2cc(=O)c3cc(C)c(C)c(C(=O)O)c3o2)cc1C	> 100 µM
O=C(/C=C/c1c(O)ccc2ccccc12)c1ccccc1	> 100 µM
Cc1nc2ccccc2c(=O)n1-c1ccccc1F	> 100 µM
CC(C)N1CN(C(C(=O)N[C@@H]2C(=O)N3C2SC(C)(C)C3C(=O)O)c2ccccc2)CSC1=S (some centres not stated)	> 100 µM
CC(C)c1cc2c(O)c(c1)Cc1cc(C(C)C)cc(c1O)Cc1cc(C(C)C)cc(c1O)Cc1cc(C(C)C)cc(c1O)C2	> 100 µM
COc1ccc(CNc2nc3cc(C(F)(F)F)ccc3nc2C)cc1OC	42.6 µM
COc1cccc(/C=C2\C(=O)N(C(=O)c3ccc(NC(C)=O)cc3)N=C2C)c1	> 100 µM
COC(C(O)c1ccc2c(c1)OCO2)P(=O)(c1ccccc1)c1ccccc1 (configuration not stated)	> 100 µM
N#C/C(=C\c1cc2ccccc2c2ccccc12)c1ccccc1	> 89 µM
CCOc1ccc2c(c1)[n+]([O-])c(-c1nc3ccccc3s1)c(N)[n+]2[O-]	> 100 µM
CS(=O)(=O)c1cc(=O)c2ccccc2s1	7.92 µM
Cc1ccc2c(c1)CN(C(=O)CCC(=O)OCc1ccccc1)c1ccc(C)cc1CN2C(=O)CCC(=O)OCc1ccccc1	> 100 µM
CC(=O)N1C/C(=C\c2ccc(N(C)C)cc2)C(=O)/C(=C/c2ccc(N(C)C)cc2)C1	> 100 µM
Cc1[nH]c2ccccc2c1C1Cc2ccccc2N1C(=O)/C(Cl)=C/c1ccccc1 (configuration not stated)	> 100 µM
